# According to patent US20110076230A1, “Novel Substituted Indoles” (priority 2008, published 2011):
# Biological target: human AD brain homogenates (Homo sapiens, UniProt P05067)
# Experiment: Tissue homogenate binding assay (competition with [3H]-DMAB)
# Conditions: human AD brain (frontal cortex) tissue homogenate; radioligand [3H]-DMAB 1.5 nM; 90 minutes at room temperature
# Protocol: Homogenates from AD and non-AD human brain samples were assessed for their immunoreactivity to anti-Aβ antibody 6E10. The highest and lowest levels of 6E10 immunoreactivity were chosen for the AD group and the non-AD control group, respectively. Candidate Aβ compounds were initially selected based on their structural similarity to published amyloid ligands and then for high affinity in competing with [^3H]PIB binding to AD brain homogenates. These compounds were radiolabeled with [^3H] and tested for binding affinity to human AD brain homogenates as well as binding to human non-AD brain homogenates. [^3H]-DMAB (see structure below) was selected based from these candidates based on its binding affinity for human AD brain homogenates, and minimal binding to non-AD control homogenates. A low fraction of non-displaceable binding was also an important criterion.
# PET radiotracer candidate compounds were then selected based on their high affinity competition with [^3H]-DMAB in binding to AD brain homogenates. These PET radiotracer candidate compounds were tested to determine if they were effective PgP substrates. Those PET radiotracer candidate compounds with little PgP substrate activity were radiolabeled with [^3H] or [^18F] and tested for binding affinity to human AD brain homogenates as well as binding to human non-AD brain homogenates and in autoradiographic studies using human AD and non-AD brain slices. Candidate radioligands were selected based on their strong binding affinity for human AD brain homogenates, and minimal binding to non-AD control homogenates. A low fraction of non-displaceable binding was also an important criterion. Minimization of white matter binding was an important criterion.
# Postmortem frozen human brain samples from donors with clinical diagnosis of Alzheimer's diseases (AD) or normal control subjects (non-AD) were purchased from Analytical Biological Services Inc., at 701-4 Cornell Business Park, Wilmington, Del. […]
# [^3H]-DMAB was synthesized at a specific activity of ˜80 Ci/mmol. […] Total binding was defined in the absence of competing compound, and non-displaceable binding was determined in the presence of 1 μM unlabeled self block. […] Incubation was carried out at room temperature (25° C.) for 90 minutes, and then the assay samples were filtered onto GF/C filters using Skatron 12 well harvester, washing on setting 5−5−5 ((˜3×2 ml) ice cold buffer (PBS, pH 7.4). GF/C filter papers for the Skatron harvester were pre-soaked in 0.1% BSA for 1 hour at room temperature before use. Filters were punched into scintillation vials and counted in 2 mL Ultima Gold on Perkin Elmer Tri-Carb 2900TR for 1 minute. The data analysis was done with Prism software. All assays were done in triplicate, and in the laboratory designated for studies using human tissues.
# Sequence of human AD brain homogenates (P05067 672-711 limits assumed): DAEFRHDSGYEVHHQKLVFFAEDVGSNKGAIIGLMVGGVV
row,SMILES,IC50 [nM]
1,Cc1ccc2cc(-c3ccc(-n4ccnc4)nc3)[nH]c2c1,245
2,CNc1ccc(-c2cc3ccc(Cl)cc3[nH]2)cn1,40
3,COc1ccc2[nH]c(-c3ccc(-n4cncn4)nc3)cc2c1,10
4,N#Cc1ccc2cc(-c3cnc4[nH]ccc4c3)[nH]c2c1,79
